Data: patent publication US20190022041A1, “OIL PALM PHENOLICS COMPOSITION FOR THE PROTECTION OF HUMANS, ORGANS, CELLS AND TISSUES AGAINST THE INJURIOUS EFFECTS OF EXPOSURE TO IONIZING RADIATION” (Malaysian Palm Oil Board, priority 2015, published 2019)

Tested on: HT-29 cells
Assay: number of colonies of HT-29 cells after gamma ionizing radiation
Format: cell-based
Details: FIG. 3
Description: For instance, lipid peroxidation levels of HT-29 by TBAR assay is protected by OPP against 800 and 1600 rads HT-29, as illustrated in graph of FIG. 2. […] Out of the three preparations, number of colonies of HT-29 is highest in case of de-phenolics.

With `O=C(O)C1=C[C@@H](O)[C@@H](O)[C@H](O)C1` [shikimic acid] the number of colonies was “abruptly increases”.
